The text below walks through data of paper PMC4109836, “Analysis of the co-operative interaction between the allosterically regulated proteins GK and GKRP using tryptophan fluorescence” (Biochemical Journal, 2014).

One assay has as its target T1, GK-T65W/W99R/W167F/W257F (Homo sapiens, UniProt P35557, T65W/W167F/W257F/W99R).
T1 construct: GST (cleaved yes); made in house; host or cells: Escherichia coli
T1 sequence (P35557 1-465 T65W/W99R/W167F/W257F): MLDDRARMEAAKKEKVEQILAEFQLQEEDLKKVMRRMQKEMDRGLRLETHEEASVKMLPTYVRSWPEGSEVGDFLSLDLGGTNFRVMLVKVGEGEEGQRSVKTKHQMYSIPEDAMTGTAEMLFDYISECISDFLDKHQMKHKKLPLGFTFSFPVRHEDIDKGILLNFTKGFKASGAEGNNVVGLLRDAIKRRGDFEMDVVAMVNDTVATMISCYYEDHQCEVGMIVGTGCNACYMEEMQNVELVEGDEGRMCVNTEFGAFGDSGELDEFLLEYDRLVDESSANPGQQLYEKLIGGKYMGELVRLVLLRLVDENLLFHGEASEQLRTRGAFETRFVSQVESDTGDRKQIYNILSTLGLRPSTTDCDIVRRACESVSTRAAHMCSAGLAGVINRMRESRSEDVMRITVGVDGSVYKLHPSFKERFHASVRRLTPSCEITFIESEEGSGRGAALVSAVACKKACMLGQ
The assay can be described thus: GKA and glucose binding by GK-T65W/W99R/W167F/W257F measured by TF. To be noted: 25°C.

The target of the next assay is T2, GKRP-P446L (Homo sapiens, UniProt Q14397, P446L).
T2 construct: FLAG; made in house; host or cells: Escherichia coli
T2 sequence (Q14397 1-625 P446L): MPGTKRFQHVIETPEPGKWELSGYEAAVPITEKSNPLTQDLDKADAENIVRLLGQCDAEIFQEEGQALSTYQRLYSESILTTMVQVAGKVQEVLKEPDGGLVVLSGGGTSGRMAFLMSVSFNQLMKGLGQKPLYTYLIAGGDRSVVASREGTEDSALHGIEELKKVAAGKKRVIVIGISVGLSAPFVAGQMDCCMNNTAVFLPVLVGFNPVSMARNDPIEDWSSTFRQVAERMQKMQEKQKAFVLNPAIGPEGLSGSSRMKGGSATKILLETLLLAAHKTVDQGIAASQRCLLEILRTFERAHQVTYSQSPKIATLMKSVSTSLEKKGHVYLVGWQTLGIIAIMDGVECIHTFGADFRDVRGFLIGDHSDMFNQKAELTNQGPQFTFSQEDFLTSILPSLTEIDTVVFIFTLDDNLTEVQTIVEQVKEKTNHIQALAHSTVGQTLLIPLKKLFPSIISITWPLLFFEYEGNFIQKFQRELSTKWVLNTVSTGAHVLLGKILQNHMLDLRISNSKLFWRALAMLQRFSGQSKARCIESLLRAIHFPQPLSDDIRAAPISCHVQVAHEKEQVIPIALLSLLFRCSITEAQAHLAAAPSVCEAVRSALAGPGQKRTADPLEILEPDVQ
The assay can be described thus: Ligand binding to free GKRP-P446L measured by TF of GKRP.

Setting [1] is: D-glucose titration in the presence of GKA (20 μM).
Setting [2] is: 0.3 μM GKRP-P446L, ligand alone, 20°C.

On to `OC[C@H]1OC(O)[C@H](O)[C@@H](O)[C@@H]1O` (stereo partly drawn) [D-Glucose, D-glucose], for which, on GK-T65W/W99R/W167F/W257F (setting [1]), the H amounted to 1 and the Kd stood at 0.74 mM. Moreover, at GK-T65W/W99R/W167F/W257F (D-glucose titration), the H is reported as 1 and the Kd came to 4.6 mM. Moreover, the Kd at GKRP-P446L (0.3 μM GKRP-P446L, D-glucose alone, 20°C, read-out: S0.5) stood at 27 mM. For the same compound, at GKRP-P446L (setting [2]), the “H (Hill number)” value amounted to 1.49 and the “ΔF (relative fluorescence change at 340 nm)” value is listed as −0.06. Further, on GKRP-P446L (ligand alone), the “effect on the TF signal of GKRP-P446L” value is recorded as “lowered the TF signal”.
